# Results from US10160762B2, “6-alkyl dihydropyrazolopyrimidinone compounds as PDE2 inhibitors” (Merck Sharp & Dohme Corp., priority 2015, dated 2018).
# Target: T1, human PDE2A1 (Homo sapiens, UniProt O00408)
# T1 construct: GST; purchased BPS Bioscience (San Diego, Calif.) 60020; host or cells: insect cells
# Assay: IMAP FP PDE assay, human PDE2A1
# Assay type: biochemical
# Details: Lab B; read-out: Human PDE2 Ki (nM) Lab B
# In short: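 GST-tagged human PDE2A1 from insect cells; substrate 50 nM FAM-cAMP containing 1000 nM cGMP in Tris pH 7.2/MgCl2/DTT buffer, enzyme giving 20% conversion. 60 min at room temperature, IMAP binding reagent, fluorescence polarization read. Apparent Ki from FP readings using apparent KM 10,000 nM; ten-point 3-fold titrations.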
# T1 sequence (O00408 1-920 isoform O00408-2): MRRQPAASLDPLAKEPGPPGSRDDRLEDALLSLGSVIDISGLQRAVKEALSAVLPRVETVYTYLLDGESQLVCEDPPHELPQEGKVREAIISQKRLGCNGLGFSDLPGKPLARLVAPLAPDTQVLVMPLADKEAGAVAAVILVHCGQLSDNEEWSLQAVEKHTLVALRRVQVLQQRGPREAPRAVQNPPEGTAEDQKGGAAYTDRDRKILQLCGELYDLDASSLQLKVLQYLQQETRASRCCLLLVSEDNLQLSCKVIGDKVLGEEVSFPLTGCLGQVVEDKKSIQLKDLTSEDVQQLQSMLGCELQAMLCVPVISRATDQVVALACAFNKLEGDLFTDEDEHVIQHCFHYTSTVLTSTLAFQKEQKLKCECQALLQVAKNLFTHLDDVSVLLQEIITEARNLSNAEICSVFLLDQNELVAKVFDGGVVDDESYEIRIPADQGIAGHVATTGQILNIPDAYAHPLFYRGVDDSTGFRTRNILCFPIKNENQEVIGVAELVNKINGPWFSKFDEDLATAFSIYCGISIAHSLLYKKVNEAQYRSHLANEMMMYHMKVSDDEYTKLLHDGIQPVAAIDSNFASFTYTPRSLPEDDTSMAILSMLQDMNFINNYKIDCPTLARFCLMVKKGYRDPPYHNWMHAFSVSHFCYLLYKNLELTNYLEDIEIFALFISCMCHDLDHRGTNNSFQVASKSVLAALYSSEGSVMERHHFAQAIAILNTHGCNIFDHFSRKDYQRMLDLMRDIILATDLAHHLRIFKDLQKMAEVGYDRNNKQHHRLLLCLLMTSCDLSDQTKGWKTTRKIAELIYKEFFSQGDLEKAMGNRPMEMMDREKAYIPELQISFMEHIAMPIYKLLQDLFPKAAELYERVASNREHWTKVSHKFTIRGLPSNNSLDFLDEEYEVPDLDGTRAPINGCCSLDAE
row,SMILES,Ki [nM]
1,"Cc1nc2c(c(C(=O)N3CCOCC3)nn2C(C)c2ccc(C(F)(F)F)cc2)c(=O)[nH]1 (single isomer, unassigned) [Example 270, (R)- or (S)-6-Methyl-3-(morpholine-4-carbonyl)-1-(1-(4-(trifluoromethyl)phenyl)ethyl)-1H-pyrazolo[3,4-d]pyrimidin-4(5H)-one]",> 2960
2,"CC(c1ccc(C(F)(F)F)cc1)n1nc(CO)c2c(=O)[nH]c(C3CCCO3)nc21 (single isomer, unassigned) [Example 313, (R,S)- or (S,R)- or (R,R)- or (S,S)-3-(Hydroxymethyl)-6-(tetrahydrofuran-2-yl)-1-(1-(4-(trifluoromethyl)-phenyl)ethyl)-1,5-dihydro-4H-pyrazolo[3,4-d]pyrimidin-4-one]",22
3,"Cc1nc2c(c(C(F)F)nn2C(C)c2ccc(OC(F)F)cc2)c(=O)[nH]1 (single isomer, unassigned) [Example 181, (R)- or (S)-1-(1-(4-(Difluoromethoxy)phenyl)ethyl)-3-(difluoromethyl)-6-methyl-1H-pyrazolo[3,4-d]pyrimidin-4(5H)-one]",82
4,"Cc1nc2c(c(C(=O)N(C)C)nn2C(C)c2ccc(C(F)(F)F)cc2)c(=O)[nH]1 (single isomer, unassigned) [Example 267, (S)- or (R)-N,N,6-Trimethyl-4-oxo-1-(1-(4-(trifluoromethyl)phenyl)ethyl)-4,5-dihydro-1H-pyrazolo[3,4-d]pyrimidine-3-carboxamide]",> 2960
5,"Cc1nc2c(c(CC(F)(F)F)nn2C(c2ccc(C(F)(F)F)c(F)c2)C(C)(C)C)c(=O)[nH]1 (single isomer, unassigned) [Example 60, (R)- or (S)-1-(1-(3-Fluoro-4-(trifluoromethyl)phenyl)-2,2-dimethylpropyl)-6-methyl-3-(2,2,2-trifluoroethyl)-1H-pyrazolo[3,4-d]pyrimidin-4(5H)-one]",> 2960
6,"Cc1nc2c(c(C(F)F)nn2C(C)c2ccc(S(F)(F)(F)(F)F)cc2)c(=O)[nH]1 (single isomer, unassigned) [Example 161]",224
7,"Cc1nc2c(c(C(=O)NCC(F)(F)F)nn2C(C)c2ccc(C(F)(F)F)cc2)c(=O)[nH]1 (single isomer, unassigned) [Example 268, (R)- or (S)-6-Methyl-4-oxo-N-(2,2,2-trifluoroethyl)-1-(1-(4-(trifluoromethyl)phenyl)ethyl)-4,5-dihydro-1H-pyrazolo[3,4-d]pyrimidine-3-carboxamide]",311
8,"Cc1nc2c(c(C3CCCO3)nn2C(C)c2ccc(C(F)(F)F)cc2)c(=O)[nH]1 (single isomer, unassigned) [Example 70, (R, R)- or (R, S) or (S, R) or (S, S)-6-Methyl-3-(-tetrahydrofuran-(trifluoromethyl)phenyl)ethyl)-1H-pyrazolo[3,4-d]pyrimidin-4(5H)-one]",159
9,"Cc1nc2c(c(CO)nn2C(C)[C@H]2CC[C@H](C(F)(F)F)CC2)c(=O)[nH]1 (single isomer, unassigned) [Example 125, (S)- or (R)-3-(Hydroxymethyl)-6-methyl-1-((trans)-4-(trifluoro-methyl)cyclohexyl)ethyl)-1H-pyrazolo[3,4-d]pyrimidin-4(5H)-one]",26
10,"Cc1nc2c(c(CF)nn2C(c2ccc(OC(F)(F)F)c(F)c2)C2CC2)c(=O)[nH]1 (single isomer, unassigned) [Example 229, (S)- or (R)-1-(Cyclopropyl(3-fluoro-4-(trifluoromethoxy)phenyl)methyl)-3-(fluoromethyl)-6-methyl-1,5-dihydro-4H-pyrazolo[3,4-d]pyrimidin-4-one]",2
11,"Cc1nc2c(c(CO)nn2C(c2ccc(C(F)(F)F)c(F)c2)C2(C)CC2)c(=O)[nH]1 (single isomer, unassigned) [Example 15, (S)- or (R)-1-((3-Fluoro-4-(trifluoromethyl)phenyl)(1-methylcyclopropyl)methyl)-3-(hydroxymethyl)-6-methyl-1H-pyrazolo[3,4-d]pyrimidin-4(5H)-one]",154
12,"Cc1nc2c(c(CO)nn2C(C)c2ccc(OC(F)F)cc2F)c(=O)[nH]1 (single isomer, unassigned) [Example 119, (S)- or (R)-1-(1-(4-(Difluoromethoxy)-2-fluorophenypethyl)-3-(hydroxymethyl)-6-methyl-1H-pyrazolo[3,4-d]pyrimidin-4(5H)-one]",2.7
13,"Cc1nc2c(c(C(=O)N(C)C)nn2C(C)c2ccc(C(F)(F)F)cc2)c(=O)[nH]1 (single isomer, unassigned) [Example 266, (R)- or (S)-N,N,6-Trimethyl-4-oxo-1-(1-(4-(trifluoromethyl)phenyl)ethyl)-4,5-dihydro-1H-pyrazolo[3,4-d]pyrimidine-3-carboxamide]",654
14,"Cc1nc2c(c(CO)nn2C(C)c2ccc(C(F)(F)F)cc2I)c(=O)[nH]1 (single isomer, unassigned) [Example 140, (R)- or (S)-3-(Hydroxymethyl)-1-(1-(2-iodo-4-(trifluoromethyl-)phenyl)ethyl)-6-methyl-1,5-dihydro-4H-pyrazolo[3,4-d]pyrimidin-4-one]",939
15,"Cc1nc2c(c(C(F)F)nn2C(C)c2ccc(C(F)(F)F)c(F)c2)c(=O)[nH]1 (single isomer, unassigned) [Example 168, (S)- or (R)-3-(Difluoromethyl)-1-(1-(3-fluoro-4-(trifluoromethyl)phenyl)ethyl)-6-methyl-1H-pyrazolo[3,4-d]pyrimidin-4(5H)-one]",1.4
16,"Cc1nc2c(c(CO)nn2C(C)c2ncn(CC(F)(F)F)n2)c(=O)[nH]1 (single isomer, unassigned) [Example 147]",> 2960
17,"CC(c1ccc(C(F)(F)F)cc1)n1nc(CO)c2c(=O)[nH]c(C3CCCO3)nc21 (single isomer, unassigned) [Example 314, (S,R)- or (R,R)- or (S,S)- or (R,S)-3-(Hydroxymethyl)-6-(tetrahydrofuran-2-yl)-1-(1-(4-(trifluoromethyl)-phenyl)ethyl)-1,5-dihydro-4H-pyrazolo[3,4-d]pyrimidin-4-one]",38
18,"Cc1nc2c(c(CO)nn2C(C)c2c(F)cc(C(F)(F)F)cc2F)c(=O)[nH]1 (single isomer, unassigned) [Example 136]",5
19,"CC1CCC(Cc2nc3c(c(CO)nn3C(C)c3ccc(C(F)(F)F)cc3)c(=O)[nH]2)O1 (racemic) [Example 298, 3-(Hydroxymethyl)-6-[(5-methyltetrahydrofuran-2-yl)methyl]-1-{1-[4-(trifluoromethyl)phenyl]ethyl}-1,5-dihydro-4H-pyrazolo[3,4-d]pyrimidin-4-one]",62

# Other lines, results leading:
row,Ki [nM],SMILES
1,2.6,"Cc1nc2c(c(CO)nn2C(C)c2ccc(CC(F)(F)F)cc2)c(=O)[nH]1 (single isomer, unassigned) [Example 123, (S) or (R)-3-(Hydroxymethyl)-6-methyl-1-(1-(4-(2,2,2-trifluoroethyl)phenyl)ethyl)-1H-pyrazolo[3,4-d]pyrimidin-4(5H)-one]"
2,4.5,"Cc1nc2c(c(CO)nn2C(C)c2ccc(C(F)(F)F)c(C)c2)c(=O)[nH]1 (single isomer, unassigned) [Example 107, (S)- or (R)-3-(Hydroxymethyl)-6-methyl-1-(1-(3-methyl-4-(trifluoromethyl)phenyl)ethyl)-1H-pyrazolo[3,4-d]pyrimidin-4(5H)-one]"
3,158,"Cc1nc2c(c(CO)nn2C(C)c2cnn(CC(F)(F)F)c2)c(=O)[nH]1 (single isomer, unassigned) [Example 150, (S)- or (R)-3-(Hydroxymethyl)-6-methyl-1-(1-(1-(2,2,2-trifluoroethyl)-1H-pyrazol-4-yl)ethyl)-1H-pyrazolo[3,4-d]pyrimidin-4(5H)-one]"
4,17,"CC(C)Cc1nc2c(c(CO)nn2C(C)c2ccc(C(F)(F)F)cc2)c(=O)[nH]1 (single isomer, unassigned) [Example 305, (R)- or (S)-3-(Hydroxy-methyl)-6-isobutyl-1-(1-(4-(trifluoromethyl)phenyl)ethyl)-1,5-dihydro-4H-pyrazolo-[3,4-d]pyrimidin-4-one]"
5,1.1,"Cc1nc2c(c(CO)nn2C(C)c2ccc(C(C)(F)F)cc2)c(=O)[nH]1 (single isomer, unassigned) [Example 117, (S)- or (R)-1-(1-(4-(1,1-Difluoroethyl)phenyl)ethyl)-3-(hydroxymethyl)-6-methyl-1H-pyrazolo[3,4-d]pyrimidin-4(5H)-one]"
6,> 2960,"Cc1nc2c(c(CO)nn2C(C)c2cnn(CC(F)(F)F)c2)c(=O)[nH]1 (single isomer, unassigned) [Example 149, (R)- or (S)-3-(Hydroxymethyl)-6-methyl-1-(1-(1-(2,2,2-trifluoroethyl)-1H-pyrazol-4-yl)ethyl)-1H-pyrazolo[3,4-d]pyrimidin-4(5H)-one]"
7,4.7,"CCCc1nc2c(c(CO)nn2C(C)c2ccc(C(F)(F)F)cc2)c(=O)[nH]1 (single isomer, unassigned) [Example 303, (R)- or (S)-3-(Hydroxymethyl)-6-propyl-1-(1-(4-(trifluoromethyl)phenyl)ethyl)-1,5-dihydro-4H-pyrazolo[3,4-d]pyrimidin-4-one]"
8,4.7,"CCc1nc2c(c(CO)nn2C(C)c2ccc(C(F)(F)F)cc2)c(=O)[nH]1 (single isomer, unassigned) [Example 301, (R)- or (S)-6-Ethyl-3-(hydroxymethyl)-1-{1-[4-(trifluoromethyl)phenyl]ethyl}-1,5-dihydro-4H-pyrazolo[3,4-d]pyrimidin-4-one]"
9,3.7,"Cc1nc2c(c(Br)nn2C(C)c2ccc(C(F)(F)F)cc2)c(=O)[nH]1 (single isomer, unassigned) [Example 325]"
10,0.59,"Cc1nc2c(c(CO)nn2C(C)c2ccc(C3(C)CC3)cc2)c(=O)[nH]1 (single isomer, unassigned) [Example 144, (S)- or (R)-3-(Hydroxymethyl)-6-methyl-1-(1-(4-(1-methylcyclopropyl)phenyl)ethyl)-1H-pyrazolo[3,4-d]pyrimidin-4(5H)-one]"
